From patent US11014915B2, “Selective estrogen receptor degrader” (SUN PHARMA ADVANCED RESEARCH COMPANY LIMITED, priority 2019, dated 2021)

Test system: subcutaneous MCF7-Y537S xenografts
Assay: In-vivo efficacy in MCF7-Y537S mice xenografts
Design: species or system female athymic nude mice
Protocol: In-Vivo Efficacy of Compound of Formula I and Compound of Formula Ia: […]
The efficacy of the compound of Formula I and the compound of Formula Ia were evaluated in female athymic nude mice harboring subcutaneous MCF7-Y537S xenografts. Dose formulations of the compound of Formula I and the compound of Formula Ia were prepared in Tween 80 (0.4% v/v of the total volume of suspension) in 0.5% w/v carboxymethylcellulose (CMC) and administered once daily orally for 28 days. Two perpendicular diameters of tumor were measured with digital Vernier caliper. Tumor volume (V) was calculated using the following equation: V=(a^2×b)/2, where “a” is the width of the tumor (small diameter), and “b” the length (large diameter), both in millimeters. Tumors were monitored twice weekly and compared with a vehicle treated group.

CC1=C(c2cc(F)cc(F)c2)[C@H](c2ccc(/C=C/CN3CC(CF)C3)cc2)Oc2cc(O)ccc21 [Formula Ia, (2S)-3-(3,5-difluorophenyl)-2-[4-[(E)-3-[3-(fluoromethyl)azetidin-1-yl]prop-1-enyl]phenyl]-4-methyl-2H-chromen-7-ol]
% Tumor growth inhibition compared to vehicle group after 28 days (50 mg/kg, p.o., 28 days, once daily): 56% | Tumor growth compared to the vehicle group (in words) (once daily orally for 28 days): significant reduction in the tumor growth
